# Laboratory results published in PubChem BioAssay (NCI).
#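 Results reflect a 48-hour exposure of cells in 96-well plates to compound at five concentrations. The concentration for full growth arrest is given as TGI.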
# System: SN12C renal
# Test: growth of human tumour cells (NCI), 48 h
row,SMILES,TGI
1,COc1nn(Cc2ccccn2)c2ccc([N+](=O)[O-])cc12,> 100 µM
2,O=C(Nc1ccc(Cl)cc1)c1cc(S(=O)(=O)Nc2n[nH]c(Nc3ccc4ccccc4c3)n2)c(SSc2cc(Cl)c(C(=O)Nc3ccc(Cl)cc3)cc2S(=O)(=O)Nc2n[nH]c(Nc3ccc4ccccc4c3)n2)cc1Cl,59.2 µM
3,CC1=NN(c2ccccc2)C2(C1)C(Cl)C(=O)N2c1nc2ccccc2s1 (stereo unspecified),> 100 µM
4,Cc1c(N=Nc2ccccc2)c(-c2ccccc2)n(C2OC(CO)C(O)C(O)C2O)c(=S)c1C#N (stereo unspecified),28.5 µM

# System: K-562 leukemia
# Test: growth of human tumour cells (NCI), 48 h
row,SMILES,TGI
1,CC(=O)Nc1ccc(-c2nc3ccccc3s2)cc1Br,> 100 µM
2,CC(NC(=O)OCc1ccccc1)NC(=O)OC(C)(C)C (stereo unspecified),> 100 µM
3,COc1nn(Cc2ccccn2)c2ccc([N+](=O)[O-])cc12,> 100 µM
4,O=C(Nc1ccc(Cl)cc1)c1cc(S(=O)(=O)Nc2n[nH]c(Nc3ccc4ccccc4c3)n2)c(SSc2cc(Cl)c(C(=O)Nc3ccc(Cl)cc3)cc2S(=O)(=O)Nc2n[nH]c(Nc3ccc4ccccc4c3)n2)cc1Cl,47.3 µM
5,CC1=NN(c2ccccc2)C2(C1)C(Cl)C(=O)N2c1nc2ccccc2s1 (stereo unspecified),> 100 µM
6,Cc1c(N=Nc2ccccc2)c(-c2ccccc2)n(C2OC(CO)C(O)C(O)C2O)c(=S)c1C#N (stereo unspecified),> 100 µM

# System: HOP-62 NSCLC
# Test: growth of human tumour cells (NCI), 48 h
row,SMILES,TGI
1,CC(=O)Nc1ccc(-c2nc3ccccc3s2)cc1Br,56.7 µM
2,CC(NC(=O)OCc1ccccc1)NC(=O)OC(C)(C)C (stereo unspecified),> 100 µM
3,COc1nn(Cc2ccccn2)c2ccc([N+](=O)[O-])cc12,> 100 µM
4,O=C(Nc1ccc(Cl)cc1)c1cc(S(=O)(=O)Nc2n[nH]c(Nc3ccc4ccccc4c3)n2)c(SSc2cc(Cl)c(C(=O)Nc3ccc(Cl)cc3)cc2S(=O)(=O)Nc2n[nH]c(Nc3ccc4ccccc4c3)n2)cc1Cl,80.6 µM
5,CC1=NN(c2ccccc2)C2(C1)C(Cl)C(=O)N2c1nc2ccccc2s1 (stereo unspecified),82.6 µM
6,Cc1c(N=Nc2ccccc2)c(-c2ccccc2)n(C2OC(CO)C(O)C(O)C2O)c(=S)c1C#N (stereo unspecified),23.2 µM

# System: A498 renal
# Test: growth of human tumour cells (NCI), 48 h
row,SMILES,TGI
1,CC(=O)Nc1ccc(-c2nc3ccccc3s2)cc1Br,32.1 µM
2,CC(NC(=O)OCc1ccccc1)NC(=O)OC(C)(C)C (stereo unspecified),> 100 µM
3,COc1nn(Cc2ccccn2)c2ccc([N+](=O)[O-])cc12,> 100 µM
4,O=C(Nc1ccc(Cl)cc1)c1cc(S(=O)(=O)Nc2n[nH]c(Nc3ccc4ccccc4c3)n2)c(SSc2cc(Cl)c(C(=O)Nc3ccc(Cl)cc3)cc2S(=O)(=O)Nc2n[nH]c(Nc3ccc4ccccc4c3)n2)cc1Cl,52.1 µM
5,CC1=NN(c2ccccc2)C2(C1)C(Cl)C(=O)N2c1nc2ccccc2s1 (stereo unspecified),> 100 µM
6,Cc1c(N=Nc2ccccc2)c(-c2ccccc2)n(C2OC(CO)C(O)C(O)C2O)c(=S)c1C#N (stereo unspecified),32.5 µM

# System: MCF7 breast
# Test: growth of human tumour cells (NCI), 48 h
row,SMILES,TGI
1,CC(=O)Nc1ccc(-c2nc3ccccc3s2)cc1Br,> 100 µM
2,CC(NC(=O)OCc1ccccc1)NC(=O)OC(C)(C)C (stereo unspecified),> 100 µM
3,COc1nn(Cc2ccccn2)c2ccc([N+](=O)[O-])cc12,> 100 µM
4,O=C(Nc1ccc(Cl)cc1)c1cc(S(=O)(=O)Nc2n[nH]c(Nc3ccc4ccccc4c3)n2)c(SSc2cc(Cl)c(C(=O)Nc3ccc(Cl)cc3)cc2S(=O)(=O)Nc2n[nH]c(Nc3ccc4ccccc4c3)n2)cc1Cl,> 64 µM
5,CC1=NN(c2ccccc2)C2(C1)C(Cl)C(=O)N2c1nc2ccccc2s1 (stereo unspecified),> 100 µM
6,Cc1c(N=Nc2ccccc2)c(-c2ccccc2)n(C2OC(CO)C(O)C(O)C2O)c(=S)c1C#N (stereo unspecified),17.1 µM

# System: HCT-15 colon
# Test: growth of human tumour cells (NCI), 48 h
row,SMILES,TGI
1,CC(=O)Nc1ccc(-c2nc3ccccc3s2)cc1Br,> 100 µM
2,CC(NC(=O)OCc1ccccc1)NC(=O)OC(C)(C)C (stereo unspecified),> 100 µM
3,COc1nn(Cc2ccccn2)c2ccc([N+](=O)[O-])cc12,> 100 µM
4,O=C(Nc1ccc(Cl)cc1)c1cc(S(=O)(=O)Nc2n[nH]c(Nc3ccc4ccccc4c3)n2)c(SSc2cc(Cl)c(C(=O)Nc3ccc(Cl)cc3)cc2S(=O)(=O)Nc2n[nH]c(Nc3ccc4ccccc4c3)n2)cc1Cl,43.7 µM
5,CC1=NN(c2ccccc2)C2(C1)C(Cl)C(=O)N2c1nc2ccccc2s1 (stereo unspecified),> 100 µM
6,Cc1c(N=Nc2ccccc2)c(-c2ccccc2)n(C2OC(CO)C(O)C(O)C2O)c(=S)c1C#N (stereo unspecified),25.5 µM

# System: EKVX NSCLC
# Test: growth of human tumour cells (NCI), 48 h
row,SMILES,TGI
1,CC(=O)Nc1ccc(-c2nc3ccccc3s2)cc1Br,> 97.1 µM
2,CC(NC(=O)OCc1ccccc1)NC(=O)OC(C)(C)C (stereo unspecified),> 100 µM
3,COc1nn(Cc2ccccn2)c2ccc([N+](=O)[O-])cc12,> 100 µM
4,O=C(Nc1ccc(Cl)cc1)c1cc(S(=O)(=O)Nc2n[nH]c(Nc3ccc4ccccc4c3)n2)c(SSc2cc(Cl)c(C(=O)Nc3ccc(Cl)cc3)cc2S(=O)(=O)Nc2n[nH]c(Nc3ccc4ccccc4c3)n2)cc1Cl,> 100 µM
5,CC1=NN(c2ccccc2)C2(C1)C(Cl)C(=O)N2c1nc2ccccc2s1 (stereo unspecified),> 100 µM
6,Cc1c(N=Nc2ccccc2)c(-c2ccccc2)n(C2OC(CO)C(O)C(O)C2O)c(=S)c1C#N (stereo unspecified),42.5 µM

# System: OVCAR-3 ovarian
# Test: growth of human tumour cells (NCI), 48 h
row,SMILES,TGI
1,CC(=O)Nc1ccc(-c2nc3ccccc3s2)cc1Br,> 100 µM
2,CC(NC(=O)OCc1ccccc1)NC(=O)OC(C)(C)C (stereo unspecified),> 100 µM
3,COc1nn(Cc2ccccn2)c2ccc([N+](=O)[O-])cc12,> 100 µM
4,O=C(Nc1ccc(Cl)cc1)c1cc(S(=O)(=O)Nc2n[nH]c(Nc3ccc4ccccc4c3)n2)c(SSc2cc(Cl)c(C(=O)Nc3ccc(Cl)cc3)cc2S(=O)(=O)Nc2n[nH]c(Nc3ccc4ccccc4c3)n2)cc1Cl,59.5 µM
5,CC1=NN(c2ccccc2)C2(C1)C(Cl)C(=O)N2c1nc2ccccc2s1 (stereo unspecified),47.9 µM
6,Cc1c(N=Nc2ccccc2)c(-c2ccccc2)n(C2OC(CO)C(O)C(O)C2O)c(=S)c1C#N (stereo unspecified),18 µM

# System: NCI-H460 lung
# Test: growth of human tumour cells (NCI), 48 h
row,SMILES,TGI
1,CC(=O)Nc1ccc(-c2nc3ccccc3s2)cc1Br,> 100 µM
2,CC(NC(=O)OCc1ccccc1)NC(=O)OC(C)(C)C (stereo unspecified),> 100 µM
3,COc1nn(Cc2ccccn2)c2ccc([N+](=O)[O-])cc12,> 100 µM
4,O=C(Nc1ccc(Cl)cc1)c1cc(S(=O)(=O)Nc2n[nH]c(Nc3ccc4ccccc4c3)n2)c(SSc2cc(Cl)c(C(=O)Nc3ccc(Cl)cc3)cc2S(=O)(=O)Nc2n[nH]c(Nc3ccc4ccccc4c3)n2)cc1Cl,73.7 µM
5,CC1=NN(c2ccccc2)C2(C1)C(Cl)C(=O)N2c1nc2ccccc2s1 (stereo unspecified),> 100 µM
6,Cc1c(N=Nc2ccccc2)c(-c2ccccc2)n(C2OC(CO)C(O)C(O)C2O)c(=S)c1C#N (stereo unspecified),97.6 µM

# System: UACC-257 melanoma
# Test: growth of human tumour cells (NCI), 48 h
row,SMILES,TGI
1,CC(=O)Nc1ccc(-c2nc3ccccc3s2)cc1Br,> 100 µM
2,CC(NC(=O)OCc1ccccc1)NC(=O)OC(C)(C)C (stereo unspecified),> 100 µM
3,COc1nn(Cc2ccccn2)c2ccc([N+](=O)[O-])cc12,> 100 µM
4,O=C(Nc1ccc(Cl)cc1)c1cc(S(=O)(=O)Nc2n[nH]c(Nc3ccc4ccccc4c3)n2)c(SSc2cc(Cl)c(C(=O)Nc3ccc(Cl)cc3)cc2S(=O)(=O)Nc2n[nH]c(Nc3ccc4ccccc4c3)n2)cc1Cl,> 96.4 µM
5,CC1=NN(c2ccccc2)C2(C1)C(Cl)C(=O)N2c1nc2ccccc2s1 (stereo unspecified),> 100 µM

# System: TK-10 renal
# Test: growth of human tumour cells (NCI), 48 h
row,SMILES,TGI
1,CC(NC(=O)OCc1ccccc1)NC(=O)OC(C)(C)C (stereo unspecified),> 100 µM
2,COc1nn(Cc2ccccn2)c2ccc([N+](=O)[O-])cc12,> 100 µM
3,O=C(Nc1ccc(Cl)cc1)c1cc(S(=O)(=O)Nc2n[nH]c(Nc3ccc4ccccc4c3)n2)c(SSc2cc(Cl)c(C(=O)Nc3ccc(Cl)cc3)cc2S(=O)(=O)Nc2n[nH]c(Nc3ccc4ccccc4c3)n2)cc1Cl,60.8 µM
4,CC1=NN(c2ccccc2)C2(C1)C(Cl)C(=O)N2c1nc2ccccc2s1 (stereo unspecified),> 100 µM
5,Cc1c(N=Nc2ccccc2)c(-c2ccccc2)n(C2OC(CO)C(O)C(O)C2O)c(=S)c1C#N (stereo unspecified),26.9 µM

# System: HL-60(TB) leukemia
# Test: growth of human tumour cells (NCI), 48 h
row,SMILES,TGI
1,CC(=O)Nc1ccc(-c2nc3ccccc3s2)cc1Br,> 100 µM
2,CC(NC(=O)OCc1ccccc1)NC(=O)OC(C)(C)C (stereo unspecified),> 100 µM
3,COc1nn(Cc2ccccn2)c2ccc([N+](=O)[O-])cc12,64.1 µM
4,O=C(Nc1ccc(Cl)cc1)c1cc(S(=O)(=O)Nc2n[nH]c(Nc3ccc4ccccc4c3)n2)c(SSc2cc(Cl)c(C(=O)Nc3ccc(Cl)cc3)cc2S(=O)(=O)Nc2n[nH]c(Nc3ccc4ccccc4c3)n2)cc1Cl,> 63 µM
5,CC1=NN(c2ccccc2)C2(C1)C(Cl)C(=O)N2c1nc2ccccc2s1 (stereo unspecified),55.5 µM
6,Cc1c(N=Nc2ccccc2)c(-c2ccccc2)n(C2OC(CO)C(O)C(O)C2O)c(=S)c1C#N (stereo unspecified),> 100 µM

# System: SF-268 CNS
# Test: growth of human tumour cells (NCI), 48 h
row,SMILES,TGI
1,CC(=O)Nc1ccc(-c2nc3ccccc3s2)cc1Br,> 100 µM
2,CC(NC(=O)OCc1ccccc1)NC(=O)OC(C)(C)C (stereo unspecified),> 100 µM
3,COc1nn(Cc2ccccn2)c2ccc([N+](=O)[O-])cc12,> 100 µM
4,O=C(Nc1ccc(Cl)cc1)c1cc(S(=O)(=O)Nc2n[nH]c(Nc3ccc4ccccc4c3)n2)c(SSc2cc(Cl)c(C(=O)Nc3ccc(Cl)cc3)cc2S(=O)(=O)Nc2n[nH]c(Nc3ccc4ccccc4c3)n2)cc1Cl,> 100 µM
5,CC1=NN(c2ccccc2)C2(C1)C(Cl)C(=O)N2c1nc2ccccc2s1 (stereo unspecified),> 100 µM
6,Cc1c(N=Nc2ccccc2)c(-c2ccccc2)n(C2OC(CO)C(O)C(O)C2O)c(=S)c1C#N (stereo unspecified),37 µM

# System: DU-145 prostate
# Test: growth of human tumour cells (NCI), 48 h
row,SMILES,TGI
1,CC(=O)Nc1ccc(-c2nc3ccccc3s2)cc1Br,> 91.4 µM
2,CC(NC(=O)OCc1ccccc1)NC(=O)OC(C)(C)C (stereo unspecified),> 100 µM
3,COc1nn(Cc2ccccn2)c2ccc([N+](=O)[O-])cc12,> 100 µM
4,O=C(Nc1ccc(Cl)cc1)c1cc(S(=O)(=O)Nc2n[nH]c(Nc3ccc4ccccc4c3)n2)c(SSc2cc(Cl)c(C(=O)Nc3ccc(Cl)cc3)cc2S(=O)(=O)Nc2n[nH]c(Nc3ccc4ccccc4c3)n2)cc1Cl,> 74.4 µM
5,CC1=NN(c2ccccc2)C2(C1)C(Cl)C(=O)N2c1nc2ccccc2s1 (stereo unspecified),> 100 µM
6,Cc1c(N=Nc2ccccc2)c(-c2ccccc2)n(C2OC(CO)C(O)C(O)C2O)c(=S)c1C#N (stereo unspecified),41.7 µM

# System: MALME-3M melanoma
# Test: growth of human tumour cells (NCI), 48 h
row,SMILES,TGI
1,CC(=O)Nc1ccc(-c2nc3ccccc3s2)cc1Br,> 100 µM
2,CC(NC(=O)OCc1ccccc1)NC(=O)OC(C)(C)C (stereo unspecified),> 100 µM
3,COc1nn(Cc2ccccn2)c2ccc([N+](=O)[O-])cc12,> 100 µM
4,O=C(Nc1ccc(Cl)cc1)c1cc(S(=O)(=O)Nc2n[nH]c(Nc3ccc4ccccc4c3)n2)c(SSc2cc(Cl)c(C(=O)Nc3ccc(Cl)cc3)cc2S(=O)(=O)Nc2n[nH]c(Nc3ccc4ccccc4c3)n2)cc1Cl,43 µM
5,CC1=NN(c2ccccc2)C2(C1)C(Cl)C(=O)N2c1nc2ccccc2s1 (stereo unspecified),> 100 µM
6,Cc1c(N=Nc2ccccc2)c(-c2ccccc2)n(C2OC(CO)C(O)C(O)C2O)c(=S)c1C#N (stereo unspecified),30.6 µM
